Reference: patent US11426426B2, “Pharmaceutical composition for preventing or treating inflammatory diseases, containing nitrogen monoxide-sensitive acrylamide-based polymer” (POSTECH ACADEMY-INDUSTRY FOUNDATION, priority 2018, dated 2022)

Tests used:
[1] = tested on: red blood cells; experiment: Evaluation of hemolysis; type: cell-based, mice; conditions: 1 mg/mL in DPBS; 1×10^8 mouse red blood cells; 4 hours at 37° C.; absorbance at 450 nm
Procedure: In order to check whether the nitric oxide-sensitive hydrogel has in vivo stability after being administered into the body, first, red blood cells were separated from the blood collected from mice. A DPBS solution including 1 mg/mL Example 1, the nitric oxide-cleavable crosslinker (NOCCL), and acrylamide was introduced into 1×10^8 cells of the red blood cells thus prepared, and the mixture was thoroughly mixed. This solution was left to stand for 4 hours in a constant temperature tank at 37° C. Next, the solution was centrifuged, subsequently the supernatant was transferred onto a 96-well plate, and the absorbance at 450 nm was measured to calculate the degree of hemolysis.

[2] = Nitric oxide scavenging ability (Griess reagent)
Procedure: In order to check whether the nitric oxide-cleavable crosslinker (NOCCL) produced according to Production Example 1 can actually scavenge nitric oxide, Griess reagent was used, and 100 μM nitric oxide and 10 μM nitric oxide were treated to check the scavenging ability of the nitric oxide-cleavable crosslinker. At this time, N,N′-methylene bisacrylamide (BIS) was used as a comparative group, and water was used as a control group.

Row | Structure (SMILES) | degree of hemolysis [1] | nitric oxide scavenged as compared to the comparative group ([2]; 100 μM and 10 μM nitric oxide, comparative group BIS) [%] | nitric oxide scavenging ability ([2]; high concentration (100 μM) of nitric oxide) [%]
1 | C=CC(N)=O [acrylamide] | up to 99% | – | –
2 | C=CC(=O)Nc1ccc(NC(=O)C=C)c(N)c1 [nitric oxide-cleavable crosslinker, N,N-(2-amino-1,4-phenylene) diacrylamide] | did not cause hemolysis | ≥ 30 | ≥ 50
